Test results reported in PMC3574217 (Journal of medicinal chemistry, 2013).

How the values were obtained:
aorta ring preparations = details: cited from earlier work
[1] = system: CSQ-overexpressing mice with heart failure; details: chronic administration; cited from earlier work
[2] = 24 h
[3] = system: adult WT murine cardiac ventricular myocytes; assay: Contractile response; format: cell-based, mouse; details: vs control basal condition, P<0.05
cardiac P2X4R = details: cardiomyocytes obtained from the CSQ mouse; cited from earlier work
[4] = system: LAD ligation model of ischemic heart failure in mice; assay: LAD ligation ischemic heart failure model, echocardiography-derived FS; format: in vivo, mouse; details: infusion 28 days
[5] = system: LAD ligation model of ischemic heart failure in mice; assay: Ex vivo isolated working heart preparation; format: in vivo, mouse; details: infusion 28 days
[6] = system: CSQ-overexpressing mice with heart failure; assay: CSQ-overexpressing mouse model of heart failure; format: in vivo
Stability in rat plasma = details: 24 h, 37°C
[7] = Stability in rat liver microsomes; details: 24 h, 37°C

SMILES | protection in the LAD model (increase in FS), in words [4] | protection in ex vivo working heart (+dP/dt), in words [5] | cardioprotection in CSQ model, in words ([6]; infusion) | also measured
Nc1nc(Cl)nc2c1ncn2[C@H]1[C@H](O)[C@H](O)[C@@]2(COP(=O)(O)O)C[C@@H]12 [Compound 1, (1’S,2’R,3’S,4’R,5’S)-4-(6-amino-2-chloro-9H-purin-9-yl)-1-[phosphoryloxy-methyl]bicyclo[3.1.0]hexane-2,3-diol] |  |  |  | vasodilator action (aorta ring preparations): devoid of any vasodilator action; cardioprotection in CSQ mouse model [1]: rescued the hypertrophic and heart failure phenotype; stability to acidic conditions ([2]; pH 1.5, 37°C, data not shown): stable; contraction shortening (CS) [3]: modest increase in contraction shortening; P2X-like current in cardiomyocytes (cardiac P2X4R): induced a current that is characteristic of the action of the cardiac P2X4R
Nc1nc(Cl)nc2c1ncn2[C@H]1[C@H](O)[C@H](O)[C@]2(CCP(=O)(O)O)C[C@H]12 [Compound 3, (1’S,2’R,3’S,4’R,5’S)-4’-(6-amino-2-chloropurin-9-yl)-2’,3’-(dihydroxy)-1’-(phosphonoethylene)-bicyclo[3.1.0]hexane] |  |  |  | cardioprotection in CSQ mouse model [1]: protective; contraction shortening (CS) [3]: modest increase in contraction shortening
[2H]C([2H])(OP(=O)(O)O)[C@@]12C[C@@H]1[C@@H](n1cnc3c(N)nc(Cl)nc31)[C@H](O)[C@@H]2O [Compound 4, (1’S,2’R,3’S,4’R,5’S)-4-(6-Amino-2-chloro-9H-purin-9-yl)-1-[phosphoryloxydideuteromethyl]-2,3-diol-bicyclo[3.1.0]hexane] | significantly protective |  |  | 
Nc1nc(Cl)nc2c1ncn2[C@H]1[C@H](O)[C@H](O)[C@]2(CSP(=O)(O)O)C[C@H]12 [Compound 5, (1’S,2’R,3’S,4’R,5’S)-4-(6-Amino-2-chloro-purin-9-yl)-2,3-(dihydroxy)-1-[monophosporothioate]-bicyclo-[3.1.0]hexane] |  | able to improve function | could protect | 
Nc1nc(I)nc2c1ncn2[C@H]1[C@H](O)[C@H](O)[C@]2(CP(=O)(O)O)C[C@H]12 [Compound 6, (1’S,2’R,3’S,4’R,5’S)-4’-(6-Amino-2-iodoropurin-9-yl)-2’,3’-(dihydroxy)-1’-(phosphonomethylene)-bicyclo[3.1.0]hexane] |  | able to improve function | abolished protection | effect on FS in CSQ mice ([6]; infusion, compared to vehicle): did not improve FS; LV wall thickness in CSQ mice, in words ([6]; vs NS-infused CSQ mice): did not improve FS (Table S2) or prevent LV wall thinning
CCOP(=O)(OCC)OC[C@@]12C[C@@H]1[C@@H](n1cnc3c(N)nc(Cl)nc31)[C@H](O)[C@@H]2O [Compound 7, (1’S,2’R,3’S,4’R,5’S)-4-(6-Amino-2-chloro-9H-purin-9-yl)-1-[(diethylphosphate)methyl]-2,3-(dihydroxy)-bicyclo[3.1.0]hexane] | highly protective | able to improve function | cardioprotective activity was seen | 
CC(C)OP(=O)(OC[C@@]12C[C@@H]1[C@@H](n1cnc3c(N)nc(Cl)nc31)[C@H](O)[C@@H]2O)OC(C)C [Compound 8, (1’S,2’R,3’S,4’R,5’S)-4-(6-Amino-2-chloro-9H-purin-9-yl)-1-[(diisopropylphosphate)methyl]-2,3-(dihydroxy)-bicyclo[3.1.0]hexane] | highly protective |  |  | 
CC(C)(C)OP(=O)(OC[C@@]12C[C@@H]1[C@@H](n1cnc3c(N)nc(Cl)nc31)[C@H](O)[C@@H]2O)OC(C)(C)C [Compound 9, (1’S,2’R,3’S,4’R,5’S)-4-(6-Amino-2-chloro-9H-purin-9-yl)-2,3-(dihydroxy)-1-[(t-butylphosphate)methyl]-bicyclo[3.1.0]hexane] |  | able to improve function |  | 
[2H]C([2H])(OP(=O)(OCC)OCC)[C@@]12C[C@@H]1[C@@H](n1cnc3c(N)nc(Cl)nc31)[C@H](O)[C@@H]2O [Compound 10, (1’S,2’R,3’S,4’R,5’S)-4-(6-Amino-2-chloro-9H-purin-9-yl)-2,3-(dihydroxyl)-1-[(di-ethylphosphate)dideuteromethyl]bicyclo[3.1.0]hexane] | did not fully protect |  |  | 
CCOP(=O)(OCC)SC[C@@]12C[C@@H]1[C@@H](n1cnc3c(N)nc(Cl)nc31)[C@H](O)[C@@H]2O [Compound 11, (1’S,2’R,3’S,4’R,5’S)-4-(6-Amino-2-chloro-purin-9-yl)-1-[O,O-diethyl S-methyl phosphorothioate]-2,3-(dihydroxyl)-bicyclo-[3.1.0]hexane] | protective |  |  | 
CCOP(=S)(OCC)SC[C@@]12C[C@@H]1[C@@H](n1cnc3c(N)nc(Cl)nc31)[C@H](O)[C@@H]2O [Compound 13, (1’S,2’R,3’S,4’R,5’S)-4-(6-Amino-2-chloro-purin-9-yl)-1-[O,O-diethyl S-methyl phosphorodithioate]-2,3-(dihydroxyl)-bicyclo-[3.1.0]hexane] | protective |  |  | 
CCOP(=O)(C[C@@]12C[C@@H]1[C@@H](n1cnc3c(N)nc(Cl)nc31)[C@H](O)[C@@H]2O)OCC [Compound 14, Diethyl-(1’S,2’R,3’S,4’R,5’S)-4’-(6-amino-2-chloropurin-9-yl)-2’,3’-(hydroxy)-bicyclo[3.1.0]hexane phosphonate] |  | did not protect | inactive | stability in the presence of rat plasma (Stability in rat plasma): stable; stability in aqueous medium at pH 1 ([2]; 50°C): unable to demonstrate any hydrolysis; stability in aqueous medium at pH 11 ([2]; 50°C): unable to demonstrate any hydrolysis; stability in the presence of microsomes from rat liver [7]: unable to demonstrate any hydrolysis
